Test results from patent US20230145342A1, “COMBINATORY TREATMENT” (AALTO UNIVERSITY FOUNDATION SR, priority 2020, published 2023).
Entries after “also recorded” stand apart in the source; their conditions may differ.

What was measured:
[1] = Dye displacement (competitive-binding) assay between P[5]a host and HSL guests; settings: HSL guest titrated against P[5]a host with bound fluorescent dye
Source text: The addition of a HSL “[…]” displaces the […] from the cavity again, resulting in a shift back to 468 nm.
To measure the binding affinity between the macrocyclic “Host” P[5]a and different homoserine lactone “guests” a competitive-binding assay was used. In this case, a “guest” HSL solution is titrated against a solution of the P[5]a “host”, which has a fluorescent dye bound in its cavity, […], which has a known affinity for the P[5]a. The ratio of P[5]a to HSL enables calculation of the affinity.

[2] = system: Pseudomonas aeruginosa 2798 (ATCC 2798); assay: Resistance profile of strain (Table 3); assay type: cell-based; settings: strain 2798 (ATCC 2798)
Source text: (§1) The effect of P[5]a on the penetration and efficacy of coadministered antibiotics Amikacin (a), Cefepime (b), Ceftazidime (c) and Meropenem (d) in MDR resistant clinical isolates were studied.

[3] = system: P. aeruginosa PAO1; assay: Antibiotic resistance buildup, daily MIC over 14 consecutive days; assay type: cell-based, Pseudomonas aeruginosa; settings: coadministration of P[5]a with the antibiotic, 14-day period
Source text: Area below the yellow line means that the bacterium is classified as susceptible to the antibiotic. The area in between yellow and red means that the bacterium is intermediate susceptible to the antibiotic. The area above the red line means that the bacterium is classified as resistant to the antibiotic (According to the “Performance Standards for Antimicrobial Susceptibility Testing”, which is maintained by the Clinical and Laboratory Standards Institute).
Because of this, a combined administration of P[5]a with a variety of antibiotics was tested. MIC values with two different antibiotics, meropenem and cefepime (FIG. 2) were tested, over a period of 14 consecutive days (which more than surpasses the length of normal treatments, 7-10 days), when administered together with and without 2.5 mM P[5]a.
In this experiment, the minimum inhibitory concentration MIC was analyzed daily for 14 consecutive days, and the highest MIC values (so the highest concentration of antibiotic where the bacteria still grew) was used for the next day. This way, the buildup of resistance over time can be monitored. In FIG. 2, the area below the yellow line means that the bacterium is classified as susceptible to the antibiotic, the area in between yellow and red means that the bacterium is intermediate susceptible to the antibiotic and the area above the red line means that the bacterium is classified as resistant to the antibiotic (According to the “Performance Standards for Antimicrobial Susceptibility Testing”, which is maintained by the Clinical and Laboratory Standards Institute).
The effect of P[5]a on encountering resistance development in a pathogenic Gram-negative bacterium, Pserudomonas aeruginosa, strain PA01 was studied over 14-day period. The development of resistance over 14 continuous days by the pathogen PAO1 towards treatment with four clinically relevant antibiotics (meropenem, cefepime, aztreonam and tobramycin) and P[5]a was compared. […] In all antibiotic treatments, reduced susceptibility was observed from day 4 onwards, with complete resistance to all treatments after 12 days.
The effect of P[5]a on the enhancement of the penetration of coadministered antibiotics having intracellular targets (aztreonam, cefepime, meropenem and tobramycin) was studied over 14-day period in a pathogenic Gram-negative bacterium, Pserudomonas aeruginosa, strain PA01. […] MIC values were categorized in three groups according to the Clinical and Laboratory Standards Institute: susceptible, intermediate susceptible and resistant.

[4] = system: MDR-Acinetobacter baumannii 5542; assay: Resistance profile of strain (Table 3); assay type: cell-based; settings: strain 5542 A. baumannii
[5] = system: Pseudomonas aeruginosa 5539; assay: Resistance profile of strain (Table 3); assay type: cell-based; settings: strain 5539
[6] = system: Pseudomonas aeruginosa 5827; assay: Resistance profile of strain (Table 3); assay type: cell-based; settings: strain 5827
[7] = system: Pseudomonas aeruginosa 5550; assay: Resistance profile of strain (Table 3); assay type: cell-based; settings: strain 5550
Source text: as §1

[8] = system: Pseudomonas aeruginosa 5542; assay: Resistance profile of strain (Table 3); assay type: cell-based; settings: strain 5542 P. aeruginosa
Source text: as §1

[9] = system: Pseudomonas aeruginosa 5832; assay: Resistance profile of strain (Table 3); assay type: cell-based; settings: strain 5832
Source text: as §1

[10] = system: Pseudomonas aeruginosa 5834; assay: Resistance profile of strain (Table 3); assay type: cell-based; settings: strain 5834
Source text: as §1

Molecule: CCCCCCCCCCCC(O)CC(=O)N[C@@H]1CCOC1=O (stereo partly shown) [3-OH—C14 HSL]
- displacement of dye from P[5]a cavity (binding affinity) [1]: high binding affinity; also recorded: strong displacement

Molecule: C[C@H]1[C@H](NC(=O)/C(=N\OC(C)(C)C(=O)O)c2csc(N)n2)C(=O)N1S(=O)(=O)O [aztreonam]
- Antibiotic resistance (category) [2]: Intermediate susceptible
- development of resistance by the pathogen to the respective antibiotic [3]: greatly slowed

Molecule: CCCCCCCCCC(=O)CC(=O)NC1CCOC1=O (stereo not shown) [3-Oxo-C12 HSL]
- displacement of dye from P[5]a cavity (binding affinity) [1]: high binding affinity; also recorded: strong displacement

Molecule: Amoxicillin-clavulanate
- Antibiotic resistance (category) [4]: Resistant to Amikacin, Amoxicillin-clavulanate, Ampicillin,

Molecule: C[C@@H](O)[C@H]1C(=O)N2C(C(=O)O)=C(S[C@@H]3CN[C@H](CNS(N)(=O)=O)C3)[C@H](C)[C@H]12 [Doripenem, doripenem]
- Antibiotic resistance (category) [2]: Aztreonam & Cefepime, Resistant to Ceftazidime, Cirpofloxacin,

Molecule: CN(C)c1cc(NC(=O)CNC(C)(C)C)c(O)c2c1C[C@H]1C[C@H]3[C@H](N(C)C)C(O)=C(C(N)=O)C(=O)[C@@]3(O)C(O)=C1C2=O [Tigecycline]
- Antibiotic resistance (category) [4]: Resistant to Amikacin, Amoxicillin-clavulanate, Ampicillin,

Molecule: CCCC(=O)N[C@H]1CCOC1=O [C4]
- displacement of dye from P[5]a cavity (binding affinity) [1]: Poor displacement

Molecule: C[C@@H](O)[C@H]1C(=O)N2C(C(=O)O)=C(S[C@@H]3CN[C@H](C(=O)N(C)C)C3)[C@H](C)[C@H]12 [meropenem, Meropenem]
- Antibiotic resistance (category) [5]: resistant
- Antibiotic resistance (value given with the category, MIC) [5]: 8 µg
- Antibiotic resistance (category) [6]: resistant
- Antibiotic resistance (value given with the category, MIC) [6]: 16 µg
- Antibiotic resistance (category) [7]: resistant
- Antibiotic resistance (value given with the category, MIC) [7]: 8 µg
- Antibiotic resistance (category) [2]: Aztreonam & Cefepime, Resistant to Ceftazidime, Cirpofloxacin,
- Antibiotic resistance (category) [8]: resistant
- Antibiotic resistance (value given with the category, MIC) [8]: 8 µg
- Antibiotic resistance (category) [9]: resistant
- Antibiotic resistance (value given with the category, MIC) [9]: 8 µg
- Antibiotic resistance (category) [10]: resistant
- Antibiotic resistance (value given with the category, MIC) [10]: cefepime 64 ug, ceftazidime 64 ug and meropenem 64 ug
- Antibiotic resistance (category) [4]: Resistant to Amikacin, Amoxicillin-clavulanate, Ampicillin,
- development of resistance by the pathogen to the respective antibiotic [3]: greatly slowed

Molecule: CCCC(=O)CC(=O)N[C@H]1CCOC1=O [3-Oxo-C6]
- displacement of dye from P[5]a cavity (binding affinity) [1]: Poor displacement

Molecule: NCC[C@H](O)C(=O)N[C@@H]1C[C@H](N)[C@@H](O[C@H]2O[C@H](CN)[C@@H](O)[C@H](O)[C@H]2O)[C@H](O)[C@H]1O[C@H]1O[C@H](CO)[C@@H](O)[C@H](N)[C@H]1O [amikacin, Amikacin]
- Antibiotic resistance (category) [5]: Susceptible
- Antibiotic resistance (value given with the category, MIC) [5]: 8 µg
- Antibiotic resistance (category) [6]: Intermediate susceptible
- Antibiotic resistance (value given with the category, MIC) [6]: 32 µg
- Antibiotic resistance (category) [7]: Intermediate susceptible
- Antibiotic resistance (value given with the category, MIC) [7]: 32 µg
- Antibiotic resistance (category) [2]: Susceptible
- Antibiotic resistance (category) [8]: intermediate susceptible
- Antibiotic resistance (value given with the category, MIC) [8]: 16 µg
- Antibiotic resistance (category) [9]: Intermediate susceptible
- Antibiotic resistance (value given with the category, MIC) [9]: 16 µg
- Antibiotic resistance (category) [10]: intermediate susceptible
- Antibiotic resistance (value given with the category, MIC) [10]: 16 µg
- Antibiotic resistance (category) [4]: Resistant to Amikacin, Amoxicillin-clavulanate, Ampicillin,

Molecule: C[C@@H](O)[C@H]1C(=O)N2C(C(=O)O)=C(S[C@@H]3CN[C@H](C(=O)Nc4cccc(C(=O)O)c4)C3)[C@H](C)[C@H]12 [Ertapenem, ertapenem]
- Antibiotic resistance (category) [4]: Resistant to Amikacin, Amoxicillin-clavulanate, Ampicillin,

Molecule: Cc1cc(NS(=O)(=O)c2ccc(N)cc2)no1 [Sulfamethoxazole]
- Antibiotic resistance (category) [4]: Resistant to Amikacin, Amoxicillin-clavulanate, Ampicillin,

Molecule: CC1=C(C(=O)O)N2C(=O)[C@@H](NC(=O)[C@H](N)c3ccccc3)[C@H]2SC1 [Cefalexin]
- Antibiotic resistance (category) [4]: Resistant to Amikacin, Amoxicillin-clavulanate, Ampicillin,

Molecule: Piperacillin-tazobactam
- Antibiotic resistance (category) [5]: resistant
- Antibiotic resistance (category) [2]: Aztreonam & Cefepime, Resistant to Ceftazidime, Cirpofloxacin,
- Antibiotic resistance (category) [4]: Resistant to Amikacin, Amoxicillin-clavulanate, Ampicillin,

Molecule: NC[C@H]1O[C@H](O[C@H]2[C@H](O)[C@@H](O[C@H]3O[C@H](CO)[C@@H](O)[C@H](N)[C@H]3O)[C@H](N)C[C@@H]2N)[C@H](N)C[C@@H]1O [tobramycin]
- Antibiotic resistance (category) [5]: resistant
- Antibiotic resistance (category) [4]: Resistant to Amikacin, Amoxicillin-clavulanate, Ampicillin,
- development of resistance by the pathogen to the respective antibiotic [3]: greatly slowed

Molecule: CC1(C)S[C@@H]2[C@H](NC(=O)[C@H](N)c3ccccc3)C(=O)N2[C@H]1C(=O)O [Ampicillin]
- Antibiotic resistance (category) [4]: Resistant to Amikacin, Amoxicillin-clavulanate, Ampicillin,

Molecule: CCCCCC(=O)CC(=O)N[C@H]1CCOC1=O [3-Oxo-C8 HSL]
- displacement of dye from P[5]a cavity (binding affinity) [1]: Medium displacement

Molecule: CC[C@H]1OC(=O)[C@H](C)[C@@H](O[C@H]2C[C@@](C)(OC)[C@@H](O)[C@H](C)O2)[C@H](C)[C@@H](O[C@@H]2O[C@H](C)C[C@H](N(C)C)[C@H]2O)[C@](C)(O)C[C@@H](C)CN(C)[C@H](C)[C@@H](O)[C@]1(C)O [Azithromycin, azithromycin]
- Antibiotic resistance (category) [4]: Resistant to Amikacin, Amoxicillin-clavulanate, Ampicillin,

Molecule: CO/N=C(\C(=O)N[C@@H]1C(=O)N2C(C(=O)O)=C(COC(N)=O)CS[C@H]12)c1ccco1 [cefurixome]
- Antibiotic resistance (category) [5]: resistant

Molecule: Colistin
- Antibiotic resistance (category) [2]: Susceptible
